The values below come from EP3865489A1, “SPIROCYCLIC INHIBITORS OF HEPATITIS B VIRUS” (priority 2020, dated 2021).

This test deals with HBV. The test is described as follows: Anti-HBV activity in vitro: extracellular HBV DNA quantified by direct qPCR in HepAD38 cells. It is filed as cell-based. As to conditions: Hepatitis B virus, doxycycline-free medium, 96 hours at 37°C, reported as EC50 threshold value, read-out: HBV inh EC50. An excerpt: HepAD38 cell line (Ladner et al., Antimicrob Agents Chemother, 1997, 41, 1715-20) was used for HBV inhibition assays. HepAD38 is a subclone, derived from Hepatoblastoma cell line HepG2 (ATCC® Number: HB-8065™), that expresses HBV genome under the transcriptional control of a tetracycline-responsive promoter in a TET-OFF system: addition of tetracycline (TET) or doxycycline suppresses HBV replication, while its removal switches on the process allowing HBV viral particles release in the cell supernatant. HepAD38 cell line is maintained in DMEM/F12, supplemented with 10% of fetal bovine serum, 1% of glutamine, 1% of penicillin/streptomycin, 0.4 mg/ml G418 and 0,3 ug/ml tetracycline. For the HBV inhibition assay, doxycycline-free medium is used in order to allow virion production.
HBV inhibition activity in vitro was performed in 96 multiwell plates. During the initial (primary) screening, compounds were first tested in triplicates at concentrations of 0.02 µM, 0.1µM, 0.5µM and 1µM. For selected compounds, an 8-point dose-response curve was obtained using 1:2 serial dilutions (starting from 0.01µM, 0.1µM, 0.4µM or 5 µM, depending on the degree of inhibition observed during the primary screening). From the dose-response curves, half maximal effective concentration (EC50) could be calculated (see also below).
In more detail, compounds - typically dissolved in DMSO stock solutions - were diluted to 2x the final desired concentration in 100 µl of the above medium (without doxycycline) and plated in three replicates in the 96-well plates. […]
Plates were then incubated 96 hours at 37°C and then subjected to cell viability assays and extracellular HBV quantification, in order to evaluate both the cytotoxic potential and the antiviral activity of compounds. Cytotoxicity was assessed by a commercial fluorescence assay that measures the metabolic activity of cells, directly related to cell viability (Cell Titer Blue, Promega). Anti-HBV activity was evaluated by quantification of extracellular HBV DNA with direct qPCR. […]
For orientation: In qPCR the cycle at which signal appears reflects the starting amount.

As a reminder, the EC50 is the midpoint of the concentration-response curve.

`Cc1nnc(C(=O)N2CCC3(COc4c(cn(C)c4C(=O)Nc4ccc(F)c(F)c4)S(=O)(=O)N3)C2)o1` (stereo not drawn) [Example E2, N-(3,4-difluorophenyl)-7'-methyl-1-(5-methyl-1,3,4-oxadiazole-2-carbonyl)-2'H,4'H,7'H-spiro[pyrrolidine-3,3'-pyrrolo[3,4-b][1,4,5]oxathiazepine]-6'-carboxamide 1',1'-dioxide]: the EC50 is below 500 nM.

Turning to `C[C@H](NC(=O)C(=O)N1CCC2(COc3c(cn(C)c3C(=O)Nc3ccc(F)c(F)c3)S(=O)(=O)N2)C1)C(F)(F)F` (stereo in doubt) [Example E1, N-(3,4-difluorophenyl)-7'-methyl-1-(2-oxo-2-(((S)-1,1,1-trifluoropropan-2-yl)amino)acetyl)-2'H,4'H,7'H-spiro[pyrrolidine-3,3'-pyrrolo[3,4-b][1,4,5]oxathiazepine]-6'-carboxamide 1',1'-dioxide], the EC50 was below 500 nM.

Consider `C[C@H](NC(=O)C(=O)N1CCC2(COc3c(c(Cl)n(C)c3C(=O)Nc3ccc(F)c(F)c3)S(=O)(=O)N2)C1)C(F)(F)F` (stereo in doubt) [Example E3, 8'-chloro-N-(3,4-difluorophenyl)-7'-methyl-1-(2-oxo-2-(((S)-1,1,1-trifluoropropan-2-yl)amino)acetyl)-2'H,4'H,7'H-spiro[pyrrolidine-3,3'-pyrrolo[3,4-b][1,4,5]oxathiazepine]-6'-carboxamide 1',1'-dioxide], for which the concentration giving a half-maximal response (EC50) is below 500 nM.
